Laboratory results reported in patent publication US9328369B2, “Process for production of useful substance, and surfactant for use in the process” (priority 2009, dated 2016).

What was measured:
Type in all cases: cell-based
[1] = system: Escherichia coli (β); assay: Screening of secretion efficiency, TorA expressing strain; details: surfactant 1 wt %; 37° C., 1 hour; ELISA, anti-His-tag antibody
Source text: A torA gene of an Escherichia coli strain W3110 was amplified by the PCR method using primers 3 and 4 (Table 4). After being treated with restriction enzymes NdeI and BamHI, a PCR fragment was bound to an NdeI restriction enzyme site and a BamHI restriction enzyme site of a pET-22b plasmid (product of Novagen). Then, the plasmid was transformed into an AG1 (DE3) Escherichia coli strain to form a TorA expressing strain (β). Localization of the expressed TorA in a periplasmic fraction was confirmed by conducting an analysis based on the method disclosed in page 121 of Vol. 353 of METHODS IN ENZYMOLOGY (2002).
A pdxA gene of an Escherichia coli strain W3110 was amplified by the PCR method using primers 5 and 6 (Table 4). After being treated with restriction enzymes NdeI and BamHI, a PCR fragment was bound to an NdeI restriction enzyme site and a BamHI restriction enzyme site of a pET-22b plasmid (product of Novagen). Then, the plasmid was transformed into an AG1 (DE3) Escherichia coli strain to form a PdxA expressing strain (γ). Localization of the expressed PdxA in a cytoplasmic compartment was confirmed by conducting an analysis based on the method disclosed in page 121 of Vol. 353 of METHODS IN ENZYMOLOGY (2002). […]
(4) Then, the solution was allowed to stand at 37° C. for 1 hour. […] Here, the quantification of the recombinant protein in the resulting solution was carried out by ELISA assay with use of an anti-His-tag antibody. The sample prior to the centrifugation in the process (3) was treated with ultrasonic waves (200 W, 10 minutes) and the quantification of the recombinant protein therein was similarly carried out by ELISA assay with use of an anti-His-tag antibody. The ratio of lysed bacteria was obtained with use of Escherichia coli (γ), and the secretion efficiencies of the recombinant proteins of Escherichia coli (α) and (β) were calculated by using the following formula. […]
“Z” represents the ratio of lysed bacteria obtained with use of Escherichia coli (γ), which is determined by the following formula: Z=Z1/Z2. […]

[2] = system: Escherichia coli (α); assay: Screening of secretion efficiency, alkaline phosphatase expressing strain; details: surfactant 1 wt %; 37° C., 1 hour; ELISA, anti-His-tag antibody
Source text: An alkaline phosphatase (phoA) gene of an Escherichia coli strain W3110 was amplified by the PCR method using primers 1 and 2 (Table 4). After being treated with restriction enzymes NdeI and BamHI, a PCR fragment was bound with an NdeI restriction enzyme site and with a BamHI restriction enzyme site of a pET-22b plasmid (product of Novagen). Then, the plasmid was transformed into an AG1 (DE3) Escherichia coli strain formed by transforming an Escherichia coli strain AG1 (product of TOYOBO Co., LTD.) with use of a λDE3 Lysogenization Kit (product of Novagen). In this manner, an alkaline phosphatase expressing strain (a) was formed.
A pdxA gene of an Escherichia coli strain W3110 was amplified by the PCR method using primers 5 and 6 (Table 4). After being treated with restriction enzymes NdeI and BamHI, a PCR fragment was bound to an NdeI restriction enzyme site and a BamHI restriction enzyme site of a pET-22b plasmid (product of Novagen). Then, the plasmid was transformed into an AG1 (DE3) Escherichia coli strain to form a PdxA expressing strain (γ).
In this manner, culture solutions were prepared.
(2) The strains were collected using a centrifuge (4,000 G, 4° C., 15 minutes). Each of the collected Escherichia coli strains was resuspended in 1 mL of a TB culture solution (product of Difco) and chloramphenicol (30 mg/L) and IPTG (100 μM) were added thereto. Shake culture at 37° C. for 3 hours induced expression of phoA, torA, and pdxA.
(3) Subsequently, harvesting using a centrifuge was carried out again (4,000 G, 4° C., 15 minutes). Each of the collected Escherichia coli strains was resuspended in 2.5 mL of a Tris-NaCl buffer solution (50 mM Tris (pH 7.5), 100 mM NaCl). The resulting solution was divided into 25-μL portions at a time to be mixed with 25 μL of a Tris-NaCl buffer solution.
(4) Then, the solution was allowed to stand at 37° C. for 1 hour. The supernatant solution was collected and diluted in a Tris-NaCl buffer solution to a proper concentration. Here, the quantification of the recombinant protein in the resulting solution was carried out by ELISA assay with use of an anti-His-tag antibody. The sample prior to the centrifugation in the process (3) was treated with ultrasonic waves (200 W, 10 minutes) and the quantification of the recombinant protein therein was similarly carried out by ELISA assay with use of an anti-His-tag antibody. The ratio of lysed bacteria was obtained with use of Escherichia coli (γ), and the secretion efficiencies of the recombinant proteins of Escherichia coli (α) and (β) were calculated by using the following formula. […] Secretion efficiency (%)=100×{(X/Y)−Z}.
In the formula, “X” represents the amount of the recombinant protein in the culture solution after removal of bacterial cells by centrifugation in the case of using Escherichia coli (α) or (β).
“Y” represents the amount of the whole recombinant protein in the culture solution in the case of using Escherichia coli (α) or (β).
“Z” represents the ratio of lysed bacteria obtained with use of Escherichia coli (γ), which is determined by the following formula: Z=Z1/Z2.
In the formula, “Z1” represents the amount of the recombinant protein in the culture solution which remains after removal of bacterial cells by centrifugation in the case of using Escherichia coli (γ).
“Z2” represents the amount of the whole recombinant protein in the culture solution in the case of using Escherichia coli (γ).
Escherichia coli (α) and (β) were each cultured in the same manner as in the above case except that polyoxyethylene (3 mol) tridecyl ether sodium acetate as the surfactant (A) was added right after the resuspension of the Escherichia coli in the buffer solution in the process (3) of A-0, in an amount of 1% by weight on the basis of the weight of the suspension of the bacterium. The secretion efficiency was calculated according to the above-mentioned definition.

[3] = system: Escherichia coli(δ); assay: Production by secretion in microbial culture system, cellulase expressing strain (Table 5); parameters: key to Turbidity: (measured turbidity of diluted culture − blank) × dilution rate; details: Examples 2-11, surfactant 1 wt %; for Dried cell density: at termination of culturing, obtained from turbidity; for Turbidity: culturing terminated after 48 hours
Description: A bglC gene of Bacillus licheniformis was amplified by the PCR method using primers 9 and 10 (Table 4). After being treated with restriction enzymes NcoI and BamHI, a PCR amplified fragment was bound to an NcoI restriction enzyme site and a BamHI restriction enzyme site of a pET-22b plasmid (product of Novagen). Then, the plasmid was transformed into a BL21 (DE3) Escherichia coli strain (product of Novagen) to form Escherichia coli […] that expresses cellulase.
Overnight cultures (1 ml) of Escherichia coli (δ) obtained in Production Example 4 and Escherichia coli (ε) obtained in Production Example 5 were respectively prepared as Comparative Example 2 and Comparative Example 4. An amount of 0.5 ml of each was inoculated in 5 ml of an LB culture solution (containing 100 mg/L of ampicillin) and was shake-cultured at 30° C. for 3 hours. In this manner, pre-culture solutions were prepared. The pre-culture solutions were each inoculated in 50 mL of a culture solution (1.2 g of yeast extract (Nihon Pharmaceutical Co., Ltd.), 0.6 g of polypeptone (Nihon Pharmaceutical Co., Ltd.), 0.47 g of dipotassium phosphate, 0.11 g of monopotassium phosphate, 0.35 g of ammonium sulfate, 0.66 g of disodium phosphate 12-hydrate, 0.02 g of sodium citrate dihydrate, 0.2 g of glycerol, 1.5 g of lactalbumin hydrolysate, 0.3 g of a defoaming agent (Shin-Etsu Chemical Co., Ltd., “KM-70”), 1 mM magnesium sulfate, trace metal solution (18.9 μg of calcium chloride, 500 μg of iron chloride (III), 9.0 μg of zinc sulfate heptahydrate, 5.1 μg of copper sulfate, 6.7 μg of manganese chloride tetrahydrate, 4.9 μg of cobalt chloride, 200 μg of ethylene-diamine-tetraacetic acid tetrasodium salt), 100 mg/L ampicillin). Culturing was initiated with use of a microbial culture system (ABLE Corporation, product name “BioJr. 8”), while the pH value and the temperature were maintained at 6.8 and 30° C. After the culturing was initiated, 0.15 mL of 1M IPTG was added. After 14 hours from the initiation of culturing, instillation of a glycerin/protein solution (50% of glycerin, 50 g/L of lactalbumin hydrolysate, a 33 g/L defoaming agent (Shin-Etsu Chemical Co., Ltd., “KM-70”), 100 mg/L ampicillin) was started. The culturing was terminated after 48 hours from the initiation and the culture solution was recovered. The whole protein in the culture solution was analyzed by SDS-PAGE. Based on the obtained amount of the protein band, the recombinant protein was quantified.
The dried cell density at the termination of the culturing was determined by the following processes (1) to (5):
The dried cell density was determined by applying the measuring results in the process (5) and the process (1) and the volume (L) of the culture solution used in the process (2) to the following formula: Dried cell density (g/L)=([measuring result in process (5)]−[measuring result in process (1)])/0.1.
Performance of this processes for several times clarified the proportional relationship between the turbidity of the culture solution and the dried cell density. Therefore, the dried cell density was obtained from the measured turbidity in each of Comparative Examples 2 to 4 and Examples 2 to 14.
The turbidity of a culture solution that is same as the culture solution used in the measurement of the dried cell density was measured using a turbidimeter (Shimadzu Corporation, UV-1700) and 1 ml of quarts cell.
For measurement, the culture solution was diluted in saline to have an appropriate absorbance. The absorbance of the same culture solution (but not containing bacteria) diluted at the same dilution as above was set as a blank. The turbidity of the culture solution was calculated by using the following formula: Turbidity of culture solution=[(measured turbidity of diluted culture solution)−(measured turbidity of blank)]×dilution rate.
The dried cell density and the turbidity of the culture solution were plotted to construct a graph in FIG. 3. […]

[4] = system: Escherichia coli(δ); assay: as above; details: Examples 2-11; surfactant 1 wt %; supernatant of culture solution, SDS-PAGE

In the case of “Palm oil fatty acid amide propyl dimethyl amino acetate betaine [A-3]”, the “Secretion efficiency (%) Escherichia coli (β)” value [1] was 93.6% and the “Secretion efficiency (%) Escherichia coli (α)” value [2] was 91.3%.

For `CCCCCCCCCCCC[N+](C)(C)CC(=O)[O-]` [A-5, Lauryl dimethylamino acetate betaine], the “Dried cell density” value [3] was 23.8 g/L, the Turbidity [3] was 85 and the “Secretion efficiency (%) Escherichia coli (α)” value [2] was 87.8%. The “Quantitative value of produced recombinant protein” value (from here on “Quantitative value”) [4] was 2.58 g/L.

With `CCCCCCCCCCCC(=O)NCCN(CCO)CC(=O)O.[Na]` [A-13, Sodium N-lauroyl-N′-carboxymethyl-N′-hydroxyethyl ethylenediamine] the “Dried cell density” value [3] was 21.4 g/L, the Turbidity [3] was 76.4 and the “Secretion efficiency (%) Escherichia coli (α)” value [2] was 46.6%. For the same molecule, the “Quantitative value” value [4] was 1.79 g/L.

For “Sodiumt polyoxyethylene (3 mol) laurylether acetate [A-9]”, the “Dried cell density” value [3] was 14.2 g/L, the Turbidity [3] was 50.7 and the “Secretion efficiency (%) Escherichia coli (α)” value [2] was 63.3%. For the same molecule, the “Quantitative value” value [4] was 1.35 g/L.
